According to patent EP4644377A1, “LIPID COMPOUND FOR GENE DELIVERY AND LIPID NANOPARTICLE COMPRISING SAME” (NANJING CYBERNAX BIOMEDICAL TECHNOLOGY CO., LTD., priority 2022, dated 2024):

Tests used:
293T cells = test: In vitro delivery of luciferase mRNA by LNPs, 293T cells; type: cell-based, Human; details: 100 ng luciferase mRNA per well, 24 h; ratio to naked mRNA control; result in words
Description: (§1) Human embryonic kidney cells (293T cells) and human non-small cell lung cancer cell lines (A549 cells) were obtained from the Chinese Type Culture Collection Center and cultured in DMEM high glucose culture medium containing 10% fetal bovine serum under the environment of 37°C and 5% CO2. The cells were inoculated in a 96-well cell culture plate in a density of 32,000 cells per well. LNPs coating mRNA expressing luciferase (Trilink, USA) were taken and added into the wells at a dose of 100 ng of mRNA per well. Meanwhile, control wells were set on each culture plate, and 100 ng of naked mRNA that was not coated by LNPs was added into each well. The cell culture plate was placed in a cell incubator for 24 h of co-culture under the conditions of 37°C and 5% CO2, and then the transfection effect of mRNA was detected through a One-LumiTM firefly luciferase reporter gene detection kit. The transfection results of LNPs in 293T cells are shown in FIG. 1 to FIG. 6 and FIG. 13 (upper), and the transfection results of LNPs in A549 cells are shown in FIG. 7 to FIG. 12 and FIG. 13 (lower). The transfection efficiency is expressed as a ratio of chemiluminescent intensity of LNP group to chemiluminescent intensity of control group (direct delivery of naked luciferase mRNA that is not coated by LNP).

A549 cells = test: In vitro delivery of luciferase mRNA by LNPs, A549 cells; type: cell-based, human; details: 100 ng luciferase mRNA per well, 24 h; ratio to naked mRNA control; result in words
Description: as §1

C57Bl/6 mice = test: Luciferase mRNA delivery in mice, IVIS chemiluminescence; type: in vivo
Description: The animal experiments were reviewed and approved by the Ethics Committee of Zhejiang Medical College and the Ethics Committee of Zhejiang University of Technology. 6- to 8-week-old male C57Bl/6 mice were randomly grouped with 3 mice in each group. The mice in each group received a lipid nanoparticle coating mRNA expressing a luciferase via tail vein injection at a dose of 0.25 mg/kg mouse body weight (calculated by the mass of coated mRNA). […] The mRNA delivery effect of the lipid nanoparticle is quantitatively compared through a total chemiluminiscence quantity (Total Flux p/s) of a mouse whole body within unit time (shown in Table 5).
Table 13 and Table 14 show whole body chemiluminescent signals when LNPs (formulation 2) composed of the lipids in some examples deliver Flue mRNA in mice. The delivery dose of Flue mRNA was 0.25 mg/kg. 6 h after LNP injection, 150 mg/kg of D-luciferin was intraperitoneally injected into the mice, and then the whole body chemiluminescent signals were collected in the IVIS imaging system after 10 min. […]

[1] = Particle size detection of LNP (Brookhaven NanoBrook Omni, DLS); type: physicochemical
Description: Step 1. Preparation of a lipid solution and a nucleic acid solution: unless otherwise specified, all aqueous solutions involved in examples were prepared from deionized water without nucleases. An ionizable lipid, a phospholipid (disaturated phosphatidylcholine (DSPC) or dioleoylphosphatidylethanolamine (DOPE)), cholesterol and a PEG lipid (DMG-PEG2000) were mixed in a molar ratio of 50/10/38.5/1.5 (containing DSPC, formulation 1) or 36.5/16/46.5/2.5 (containing DOPE, formulation 2) and dissolved into an ethanol solution. Meanwhile, a nucleic acid (a mass ratio of ionizable lipid/nucleic acid was 10/1) was dissolved into a citrate buffer solution of pH=3, so that a final volume ratio of the ethanol solution to the citrate solution was 1/3.
Step 2. Preparation of LNP by mixing the lipid solution with the nucleic acid solution: the lipid ethanol solution and the nucleic acid aqueous solution that were prepared in Step 1 were respectively put into a sterile syringe and placed in a Precision Nanosystem Ignite instrument, the extrusion flow speeds of the ethanol solution and the water phase solution were respectively set as 3 ml/min and 9 ml/min in instrument program settings. A microfluidic chip was inserted into the instrument and LNP preparation was initiated, and then a solution mixed by the chip was collected.
Step 2.1. Preparation of an LNP solution coating nucleic acid in a porous plate: a solution of an ionizable lipid, a phospholipid (DSPC or DOPE), cholesterol and a PEG lipid (DMG-PEG2000) in ethanol was added into each well of a 96-well deep plate, so that a molar ratio of four component lipids in each well was 50/10/38.5/1.5 (containing DSPC, formulation 1) or 36.5/16/46.5/2.5 (containing DOPE, formulation 2). Then, a citrate buffer solution (pH=3, the mass of nucleic acid added into each well was 1/10 that of the ionizable lipid in this well) that was three times as ethanol in volume and dissolved with a nucleic acid molecule was quickly added into the well plate through a multi-channel pipette or an automatic liquid dispensing system and rapidly mixed, so as to obtain the LNP solution coating nucleic acid.
Step 3. Purification of the LNP solution: the LNP solution collected in Step 2 or Step 2.1 was subjected to dialysis-concentration-filtration operations, so as to obtain a final LNP solution coating nucleic acid for subsequent testing.
The LNP solution coating nucleic acid obtained in Step 3 was diluted so that the final lipid concentration was between 0.01 mg/ml and 0.1 mg/ml. The diluted solution was added into a sample reservoir, and then subjected to particle size detection in a Brookhaven NanoBrook Omni instrument.

[2] = Determination of total nucleic acid and encapsulation efficiency (Quant-iT RiboGreen RNA kit); type: physicochemical; details: LNP with RSV-mRNA, lipid ratio of formulation 1, N/P 6
Description: The content of nucleic acids in an LNP sample was determined through a Quant-iT™ RiboGreen® RNA detection kit (Thermofisher). The detection of total RNA concentration: 5 µl of to-be-detected sample was placed into 2 ml of ep tube, 245 µl of 1xTE Buffer was added, and the above materials were evenly mixed to obtain a "diluted sample". 100 µl of the above "diluted sample" was taken, 100 µl of 10% TritonX-100 solution was added, the above materials were sufficiently and evenly mixed, and then the obtained mixture was demulsified for 15 min in metal bath under the conditions of 37°C and 300 rpm; and 80 µl of 1xTE Buffer was added into an ELISA plate, 20 µl of demulsified sample was taken and added into the ELISA plate to be evenly mixed, and then 100 µl of fluorescence dye (2000-fold dilution) solution was added.
Detection of free RNA concentration: 90 µl of 1xTE Buffer was added into the ELISA plate, 10 µl of the above "diluted sample" was taken, and 100 µl of fluorescence dye (2000-fold dilution) solution was added.
Meanwhile, a series of standard solutions having different concentrations were set in the ELISA plate as quantitative standard curves. The samples were loaded onto the ELISA plate to detect fluorescence signals (with an excitation wavelength of 480 nm and an emission detection wavelength of 520). A corresponding RNA concentration was obtained after the fluorescence signal in each well was converted via the standard curve.
Calculation method of encapsulation efficiency: EE(%) = (Concentration of total mRNA−concentration of free mRNA)/(Concentration of total mRNA)∗100% [formula]

[3] = LNP formulation 2 (SM102: formulation 1), luciferase mRNA 0.25 mg/kg, tail vein, C57Bl/6 mice, whole body signal 6 h after LNP, 10 min after D-luciferin 150 mg/kg i.p.
[4] = LNPs after coating mRNA (luciferase)
[5] = LNPs (formulation 2), Flue mRNA 0.25 mg/kg, tail vein injection, whole body signal 6 h after LNP injection, 10 min after 150 mg/kg D-luciferin i.p.

CC/C=C\C/C=C\C/C=C\C/C=C\C/C=C\CCCC(=O)N(CCCN(C)C)C(C(=O)NCCCCCCCCCCCCCC)C(C)(C)C (stereo not drawn) [Lipid 157]
transfection (delivery) efficiency of LNP in 293T cells (293T cells): relatively high delivery efficiency
transfection (delivery) efficiency of LNP in A549 cells (A549 cells): relatively high delivery efficiency
Chemiluminescent signal (p/s) (C57Bl/6 mice; [3]): 4.26E+09 p/s

CCCCCCCC/C=C\CCCCCCCCOC(=O)CCC(=O)N(CCCN(C)C)C(C(=O)NCCCC(=O)OCCCCCCCC)C(C)(C)C (stereo not drawn) [Lipid 223]
PDI [1, 4]: 0.19
Particle size [1, 4]: 190.71 ± 1.15 nm·days
Chemiluminescent signal (p/s) (C57Bl/6 mice; [3]): 1.26E+10 p/s

CCCCCCCC/C=C\CCCCCCCCOC(=O)CCC(=O)N(CCCN(CC)CC)C(C(=O)NCCCC(=O)OCCCCCCCC)C(C)(C)C (stereo not drawn) [Lipid 226]
PDI [1, 4]: 0.19
Particle size [1, 4]: 207.34 ± 2.23 nm·days
Chemiluminescent signal (p/s) (C57Bl/6 mice; [3]): 9.30E+09 p/s

CCCCCCCCCCCC(=O)N(CCCN(C)C)C(C(=O)NCCCCCCCC(=O)OC(CCCCCCCC)CCCCCCCC)C(C)(C)C (stereo not drawn) [Lipid 234]
PDI [1, 4]: 0.17
Particle size [1, 4]: 240.23 ± 1.39 nm·days
Chemiluminescent signal (p/s) (C57Bl/6 mice; [3]): 1.16E+10 p/s

CCCCCCCCCCCC(=O)N(CCCN(CC)CC)C(C(=O)NCCCCCCCC(=O)OC(CCCCCCCC)CCCCCCCC)C(C)(C)C (stereo not drawn) [Lipid 237]
PDI [1, 4]: 0.14
Particle size [1, 4]: 234.57 ± 1.84 nm·days
Chemiluminescent signal (p/s) (C57Bl/6 mice; [3]): 3.86E+09 p/s

CCCCCCCCCCCC(=O)N(CCCN(C)CCCCO)C(C(=O)NCCCCCCCC(=O)OC(CCCCCCCC)CCCCCCCC)C(C)(C)C (stereo not drawn) [Lipid 240]
PDI [1, 4]: 0.19
Particle size [1, 4]: 204.35 ± 3.72 nm·days
Chemiluminescent signal (p/s) (C57Bl/6 mice; [3]): 5.76E+08 p/s

CCCCCCCCC(CC)OC(=O)CCCCCCCNC(=O)C(N(CCCN(C)C)C(=O)CCCCCCC(=O)OC(CC)CCCCCCCC)C(C)(C)C (stereo not drawn) [Lipid 401]
PDI [1, 4]: 0.19
Particle size [1, 4]: 93.6 ± 0.84 nm·days
Chemiluminescent signal (p/s) (C57Bl/6 mice; [5]): 5.92E+10 p/s

CCCCCCCCC(CC)OC(=O)CCCCCCC(=O)N(CCCN(C)C)C(C(=O)NCCCCCCCC(=O)OC(CCCCCCCC)CCCCCCCC)C(C)(C)C (stereo not drawn) [Lipid 402]
PDI [1, 4]: 0.25
Particle size [1, 4]: 84.3 ± 3.42 nm·days
Chemiluminescent signal (p/s) (C57Bl/6 mice; [5]): 4.20E+10 p/s

CCCCCCCCC(CC)OC(=O)CCCCCCC(=O)N(CCCN(C)C)C(C(=O)NCCCCCCOC(=O)C(CCCCCC)CCCCCCCC)C(C)(C)C (stereo not drawn) [Lipid 406]
PDI [1, 4]: 0.17
Particle size [1, 4]: 95.9 ± 0.75 nm·days
Chemiluminescent signal (p/s) (C57Bl/6 mice; [5]): 1.04E+11 p/s

CCCCCCCCC(CC)OC(=O)CCCCCCCNC(=O)C(N(CCCN(C)C)C(=O)CCCCCCCCCC(=O)OC(CCCCCC)CCCCCC)C(C)(C)C (stereo not drawn) [Lipid 407]
PDI [1, 4]: 0.18
Particle size [1, 4]: 97.4 ± 0.64 nm·days
Chemiluminescent signal (p/s) (C57Bl/6 mice; [5]): 8.00E+10 p/s

CCCCCCCCC(CCCCCCCC)OC(=O)CCCCCCCNC(=O)C(N(CCCN(C)C)C(=O)CCCCCCCCCC(=O)OC(CCCCCC)CCCCCC)C(C)(C)C (stereo not drawn) [Lipid 408]
PDI [1, 4]: 0.18
Particle size [1, 4]: 101.7 ± 5.09 nm·days
Chemiluminescent signal (p/s) (C57Bl/6 mice; [5]): 1.03E+11 p/s

CCCCCCCC(C)COC(=O)CCCCCCCNC(=O)C(N(CCCN(C)C)C(=O)CCCCCCCCCC(=O)OC(CCCCCC)CCCCCC)C(C)(C)C (stereo not drawn) [Lipid 409]
PDI [1, 4]: 0.25
Particle size [1, 4]: 95 ± 0.75 nm·days
Chemiluminescent signal (p/s) (C57Bl/6 mice; [5]): 3.08E+10 p/s

CCCCCCCCC(CCCCCCCC)OC(=O)CCCCCCCNC(=O)C(N(CCCN(C)C)C(=O)CCCCCCC(=O)OCC(C)CCCCCCC)C(C)(C)C (stereo not drawn) [Lipid 420]
PDI [1, 4]: 0.22
Particle size [1, 4]: 110.3 ± 1.65 nm·days
Chemiluminescent signal (p/s) (C57Bl/6 mice; [5]): 6.69E+09 p/s

CCCCCCCCC(CCCCCC)COC(=O)CCCCCCC(=O)N(CCCN(C)C)C(C(=O)NCCCCCCCC(=O)OC(CC)CCCCCCCC)C(C)(C)C (stereo not drawn) [Lipid 431]
PDI [1, 4]: 0.26
Particle size [1, 4]: 114 ± 2.51 nm·days
Chemiluminescent signal (p/s) (C57Bl/6 mice; [5]): 5.11E+10 p/s

CCCCCCCCC(CCCCCC)C(=O)OCCCCCCC(=O)N(CCCN(C)C)C(C(=O)NCCCCCCCC(=O)OCC(C)CCCCCCC)C(C)(C)C (stereo not drawn) [Lipid 445]
PDI [1, 4]: 0.24
Particle size [1, 4]: 94.7 ± 0.95 nm·days
Chemiluminescent signal (p/s) (C57Bl/6 mice; [5]): 2.15E+09 p/s

CCCCC/C=C\C/C=C\CCCCCCCC(=O)N(CCCN(C)C)C(C(=O)NCCCCCCCC(=O)OC(CCCCCCCC)CCCCCCCC)C(C)C (stereo not drawn) [Lipid 942]
PDI [1, 4]: 0.25
Particle size [1, 4]: 135.8 ± 2.13 nm·days
Chemiluminescent signal (p/s) (C57Bl/6 mice; [5]): 8.15E+08 p/s

CCCCC/C=C\C/C=C\CCCCCCCC(=O)N(CCCN(C)C)C(C)C(=O)NCCCCCCCC(=O)OC(CCCCCCCC)CCCCCCCC (stereo not drawn) [Lipid 949]
PDI [1, 4]: 0.19
Particle size [1, 4]: 115.8 ± 0.26 nm·days
Chemiluminescent signal (p/s) (C57Bl/6 mice; [5]): 6.88E+05 p/s

CCCCCCCCCCCOC(=O)CCCCCN(CCO)CCCCCCCC(=O)OC(CCCCCCCC)CCCCCCCC [SM102, heptadec-9-yl-8-((2-hydroxyethyl) (6-oxo-6-((undecyloxy)hexyl)amino) octanoate, reference compound]
encapsulation efficiency [2]: 97.9%
Particle size ([1]; LNP with RSV-mRNA, lipid ratio of formulation 1, N/P 6): 96.1 nm
Chemiluminescent signal (p/s) (C57Bl/6 mice; [3]): 3.93E+09 p/s
